Data taken from patent US20060248793A1, “Method for making fungi compatible artificial snow” (priority 2005, published 2006).

Legend:
Rhodotorula pilimanae [1] = test: Fungal inhibition, spot test on lawn (Table 1, FIG. 1-3); type: cell-based; conditions: HPLC peak material purified from P. syringae 31R cultures
Protocol: Ten μL quantities of undiluted filtrate (1) and multiple aliquots of 2-fold dilutions of the filtrate (2-9) were applied to potato dextrose agar plates with freshly streaked R. pilimanae. The plate was incubated for 1 day at 28° C. The cleared spots show fungicidal growth inhibition.
Ten μL quantities of undiluted (1) and 2^−1 (2), 2^−2 (3) and 2^−3 (4) dilutions of the extracts were applied to potato dextrose agar plates with freshly streaked R. pilimanae. The plate was incubated for 1 day at 28° C. The cleared spots show fungicidal growth inhibition.
SnoMax® (1 g) was suspended in 5 ml H2O. One ml was mixed with 1 ml of acidified acetone, centrifuged, and the supernatant was recovered. An aliquot (200 μL) of the extract was evaporated to near dryness at 40° C. H2O (100 μL) was added and the mixture evenly suspended. Ten μL each of the SnoMax® suspension, extract, and H2O control were spotted onto a fresh lawn of R. pilimanae on PDA medium and incubated at 28° C. for 24 h.
SnoMax® was obtained from the snow making operation of a local Utah ski resort. One gram was suspended in water and an aliquot was extracted with acidified acetone. The extract was dried, suspended in water, and the solutions were tested for inhibitory activity against R. pilimanae grown as a lawn on potato dextrose agar medium (1) (FIG. 3). This assay is determines syringomycin production.

Rhodotorula pilimanae [2] = test: Effect of pH on the antifungal activity of Snomax suspensions (FIG. 4); type: cell-based; conditions: R. pilimanae lawn, 28° C., 36 hours
Protocol: SnoMax was mixed and suspended with water for 1 hour at room temperature, the pHs were adjusted to 6, 8, or 10 by titrating with dilute solutions of NaOH and HCl, and the suspensions incubated at the final pHs for 1 hour at room temperature. The suspensions were then freeze dried. The freeze dried powders were extracted with acidified acetone, centrifuged, and the supernatant fractions recovered. Acetone was evaporated off at 45° C. and the residues serial diluted (2 fold) in water. Ten microliter aliquots of 2^−1 (a), 2^−2 (b), and 2^−3 (c) dilutions were deposited on a freshly prepared lawn of Rhodotorula pilimanae onto potato-dextrose-casamino acids (PDA-CA) agar medium prepared in Petri dishes. A 10 microliter aliquot of pure syringomycin E (1 mg per ml) was also applied (d). The Petri dishes were incubated at 28° C. for 36 hours. Result: pH 8 and 10 treatments eliminated the antifungal activities of snomax suspension and of syringomycin E, the latter serving as positive control.

Microsporium sp. = system: Microsporium sp.; set-up: key: +=fungicidal; conditions: cited from earlier work
Mucor sp. = system: Mucor sp.; set-up: key: +=fungicidal; conditions: cited from earlier work
Laccaria bicolor = test: ECM fungal inhibition (Table 1); type: cell-based; set-up: key: +=fungicidal; conditions: unpublished results
Source text: (§1) In addition to laboratory studies, ECM fungi that exist in high elevation sites of the Rocky Mountains and that are also culturable in artificial media are studied. These include: Amanita muscaria, Boletus edulis, Hebeloma crustuliniform, Laccaria bicolor, Laccaria laccata, Lactarius deliciosus, Lactarius rufus, Suillus brevipes, Suillus tomentosus, Rhizopogon occidentalis, and Rhizopogon subcaerulescens. Cultures of these fungi are available from the laboratory of Kropp, Utah State University or are obtained from the American Type Culture Collection. Syringomycin-containing extracts from P. syringae 31R and SnoMax® are prepared by methods used for extraction of cyclic lipodepsipeptides (FIG. 2) (1). Briefly, equal volumes of acidified acetone are added to bacterial cultures and SnoMax® suspensions. The mixtures are centrifuged and evaporated to give the aqueous extracts for testing. SnoMax® itself is suspended in water (0.1 g per ml), and the suspension is tested for fungicidal activities.
(§2) For testing, the linear growth of the various ECM fungi in the presence and absence (controls) of extracts and SnoMax® suspensions are analyzed. Sterile agar strips (5 cm×1.5 cm, cut from fresh agar plates and placed in sterile plastic petri dishes) are inoculated at one end with a 5 mm diameter inoculum plug of the ECM fungus to be tested. Paper disks (1 cm diameter) are soaked in filter-sterilized extracts and SnoMax® suspensions and placed at the opposite end of the agar strip. Control strips with disks soaked in sterile distilled water are also be prepared. The concentrations of the extracts to be used are based on the independent determination of the minimal inhibitory concentrations needed to inhibit the in vitro growth of the yeast R. pilimanae. Two levels of 2-fold dilutions above and below this concentration are used. The plates are sealed with Parafilm and incubated at room temperature for several weeks. The extent of linear growth is measured and compared. The ages of the inoculum cultures are standardized and all inoculum disks are taken from the actively growing colony margin. […]

Suillus tomentosus = test: ECM fungal inhibition (Table 1); type: cell-based; set-up: key: +=fungicidal; conditions: unpublished results
Source text: as §1, §2

Suillus brevipes = test: ECM fungal inhibition (Table 1); type: cell-based; set-up: key: +=fungicidal; conditions: unpublished results
Source text: as §1, §2

Aureobasidium pullulans = system: Aureobasidium pullulans; set-up: key: +=fungicidal; conditions: cited from earlier work
Trichophyton sp. = system: Trichophyton sp.; set-up: key: +=fungicidal; conditions: cited from earlier work
Penicillium expansum = system: Penicillium expansum; set-up: key: +=fungicidal; conditions: cited from earlier work
Candida kefyr = system: Candida kefyr; set-up: key: +=fungicidal; conditions: cited from earlier work
Candida tropicalis = system: Candida tropicalis; set-up: key: +=fungicidal; conditions: cited from earlier work
Fusarium solani = system: Fusarium solani; set-up: key: +=fungicidal; conditions: cited from earlier work
Aspergillus niger = system: Aspergillus niger; set-up: key: +=fungicidal; conditions: cited from earlier work
Aspergillus fumigatus = system: Aspergillus fumigatus; set-up: key: +=fungicidal; conditions: cited from earlier work
Penicillium radulatum = system: Penicillium radulatum; set-up: key: +=fungicidal; conditions: cited from earlier work
Fusarium oxysporum = system: Fusarium oxysporum; set-up: key: +=fungicidal; conditions: cited from earlier work
Rhodotorula pilimanae [3] = system: Rhodotorula pilimanae; set-up: key: +=fungicidal; conditions: references 4, 5; cited from earlier work
Verticillium dahliae = system: Verticillium dahliae; set-up: key: +=fungicidal; conditions: cited from earlier work
Trichoderma atroviridae = system: Trichoderma atroviridae; set-up: key: +=fungicidal; conditions: cited from earlier work
Geotricum citri-aurantii = system: Geotricum citri-aurantii; set-up: key: +=fungicidal; conditions: cited from earlier work
Candida parapsilosis = system: Candida parapsilosis; set-up: key: +=fungicidal; conditions: cited from earlier work
Thielaviopsis basicola = system: Thielaviopsis basicola; set-up: key: +=fungicidal; conditions: cited from earlier work
Ustilago maydis = system: Ustilago maydis; set-up: key: +=fungicidal; conditions: cited from earlier work
Aspergillus flavus = system: Aspergillus flavus; set-up: key: +=fungicidal; conditions: reference 1; cited from earlier work
Rhizopus sp. = system: Rhizopus sp.; set-up: key: +=fungicidal; conditions: cited from earlier work
Penicillium digitatum = system: Penicillium digitatum; set-up: key: +=fungicidal; conditions: cited from earlier work
Candida krusei = system: Candida krusei; set-up: key: +=fungicidal; conditions: cited from earlier work
Candida rugosa = system: Candida rugosa; set-up: key: +=fungicidal; conditions: cited from earlier work
Phytophthora infestans = system: Phytophthora infestans; set-up: key: +=fungicidal; conditions: cited from earlier work
Fusarium moliniforme = system: Fusarium moliniforme; set-up: key: +=fungicidal; conditions: cited from earlier work
Alternaria alternate = system: Alternaria alternate; set-up: key: +=fungicidal; conditions: cited from earlier work
Geotricum candidum = system: Geotricum candidum; set-up: key: +=fungicidal; conditions: references 2, 6, 7, 8; cited from earlier work
Penicillium raistrikii = system: Penicillium raistrikii; set-up: key: +=fungicidal; conditions: cited from earlier work
Saccharomyces cerevisiae = system: Saccharomyces cerevisiae; set-up: key: +=fungicidal; conditions: references 3, 5, 8; cited from earlier work
Cladosporium herbarum = system: Cladosporium herbarum; set-up: key: +=fungicidal; conditions: cited from earlier work
Cryptococcus neoformans = system: Cryptococcus neoformans; set-up: key: +=fungicidal; conditions: cited from earlier work
Rhizoctonia solani = system: Rhizoctonia solani; set-up: key: +=fungicidal; conditions: cited from earlier work
Candida albicans = system: Candida albicans; set-up: key: +=fungicidal; conditions: references 3, 8; cited from earlier work
Botrytis cinera = system: Botrytis cinera; set-up: key: +=fungicidal; conditions: cited from earlier work
Ceratocystis fimbriata = system: Ceratocystis fimbriata; set-up: key: +=fungicidal; conditions: cited from earlier work

syringomycin E
growth inhibitory activity against R. pilimanae, other yeasts and filamentous fungi (Rhodotorula pilimanae [1]): growth inhibitory activity
antifungal activity after pH treatment (Rhodotorula pilimanae [2]; pH 8, 1 hour at room temperature): eliminated
antifungal activity after pH treatment (Rhodotorula pilimanae [2]; pH 10, 1 hour at room temperature): eliminated

syringomycin [SR]
Fungal species inhibited (Microsporium sp.): +
Fungal species inhibited (Mucor sp.): +
Fungal species inhibited (Laccaria bicolor): +
Fungal species inhibited (Suillus tomentosus): +
Fungal species inhibited (Suillus brevipes): +
Fungal species inhibited (Aureobasidium pullulans): +
Fungal species inhibited (Trichophyton sp.): +
Fungal species inhibited (Penicillium expansum): +
Fungal species inhibited (Candida kefyr): +
Fungal species inhibited (Candida tropicalis): +
Fungal species inhibited (Fusarium solani): +
Fungal species inhibited (Aspergillus niger): +
Fungal species inhibited (Aspergillus fumigatus): +
Fungal species inhibited (Penicillium radulatum): +
Fungal species inhibited (Fusarium oxysporum): +
Fungal species inhibited (Rhodotorula pilimanae [3]): ^c+
Fungal species inhibited (Verticillium dahliae): +
Fungal species inhibited (Trichoderma atroviridae): +
Fungal species inhibited (Geotricum citri-aurantii): +
Fungal species inhibited (Candida parapsilosis): +
Fungal species inhibited (Thielaviopsis basicola): +
Fungal species inhibited (Ustilago maydis): +
Fungal species inhibited (Aspergillus flavus): +
Fungal species inhibited (Rhizopus sp.): +
Fungal species inhibited (Penicillium digitatum): +
Fungal species inhibited (Candida krusei): +
Fungal species inhibited (Candida rugosa): +
Fungal species inhibited (Phytophthora infestans): +
Fungal species inhibited (Fusarium moliniforme): +
Fungal species inhibited (Alternaria alternate): +
Fungal species inhibited (Geotricum candidum): +
Fungal species inhibited (Penicillium raistrikii): +
Fungal species inhibited (Saccharomyces cerevisiae): +
Fungal species inhibited (Cladosporium herbarum): +
Fungal species inhibited (Cryptococcus neoformans): +
Fungal species inhibited (Rhizoctonia solani): +
Fungal species inhibited (Candida albicans): +
Fungal species inhibited (Botrytis cinera): +
Fungal species inhibited (Ceratocystis fimbriata): +
